This is an account of results in PubChem BioAssay AID179 (DTP/NCI, 2004).

The subject of the test is CEM cells HIV-1 protection, formazan growth assay. The test is described as follows: NCI AIDS Antiviral Assay. Particulars: for IC50: measured here: growth of uninfected CEM cells. In a few lines:
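Category rules: moderately active means at least 50% protection on retest, and confirmed active means 100% protection reproducibly. The underlying data came from a formazan growth assay in HIV-1-infected CEM cells.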

Values joined by “and” are separate entries in the source; they are usually repeats but may differ in a detail not shown here. Equal entries are not always repeated. Active and inactive are the calls of the source.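 The calls were made as follows: active = compounds giving half or more protection of infected cells from virus-caused growth loss, again on retest; inactive = the rest.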 Where a SMILES comes first, the peptide text is derived from it. Bounds are passed on as bounds.

By EC50 is commonly meant the concentration needed to bring the measured effect to its halfway point. As a reminder, the IC50 is the concentration at which inhibition is half-maximal. Turning to `O=c1c2cc(Br)ccc2[nH]c(=S)n1-c1ccc(Br)cc1`, the EC50 is over 45.7 µM and the concentration for half-maximal inhibition (IC50) is over 45.7 µM.

Turning to `Cc1nc2c(s/c(=N\N)n2-c2ccccc2)c(=O)n1C`, the EC50 is over 13.2 µM and the IC50 is over 13.2 µM.

With `N#Cc1c(O)c(/C=N/c2ncccn2)c(=O)n2c1[nH]c1ccccc12`, the EC50 is over 200 µM and the half-maximal inhibitory concentration (IC50) is over 200 µM.

With `COc1ccccc1-n1nnc2c(N)nc(N)nc21`, the EC50 was over 200 µM and the IC50 is over 200 µM.

Take `C[N+](C)(C)CCC(=O)N1C/C(=C\c2ccccc2)C(=O)/C(=C/c2ccccc2)C1`: the EC50 was over 200 µM and the IC50 worked out at 2.82 µM.

`OC1C2CCN(CC2)C1CNC12CC3CC(CC(C3)C1)C2` (stereo not given): the EC50 was over 1740 µM and the IC50 worked out at 295 µM.

`Cn1c(NC(=O)NC23CC4CC(CC(C4)C2)C3)nc2ccccc21`: the EC50 was over 200 µM and the half-maximal inhibitory concentration (IC50) is over 200 µM.

In the case of `COc1c2c(c(Cl)c3ccc(=O)oc13)CCO2`, the EC50 was over 70.8 µM and the 50% inhibitory concentration (IC50) is over 70.8 µM.

As to `COc1ccc(Oc2ccccc2N)cc1`, the outcome was inactive.

Turning to `CNS(=O)(=O)NN(C)S(=O)(=O)c1ccc(Br)cc1`, the EC50 was over 132 µM and the IC50 is over 132 µM.

Turning to `O=C1OC(Cc2ccccc2)(N2CCCC2=O)C1c1ccccc1` (stereo not given), the EC50 is over 112 µM and the IC50 was over 112 µM.

Consider `Cc1ccc(S(=O)(=O)NC(=S)S)cc1`, for which the EC50 was over 200 µM and the IC50 was over 200 µM.

In the case of `CCN(CC)CCn1c2ccccc2c(=O)c2c(O)ccc(O)c21`, the result was inactive.

Regarding `CCN(CC)C(=O)CCN1CC1`, the EC50 is over 200 µM and the half-maximal inhibitory concentration (IC50) is over 200 µM.

For the molecule `O=C(CNc1c(Cl)cccc1Cl)NC1C=Cc2ccc(S(=O)(=O)Nc3c(Cl)cccc3Cl)cc2C1=O` (stereo not given), the EC50 was over 200 µM and the IC50 was determined as 123 µM.

Consider `NCCC(O)C(=O)NC1CC(N)C(OC2OC(CN)C(O)C(O)C2O)C(O)C1OC1OC(CO)C(O)C(N)C1O` (stereo not given), for which the outcome was inactive.

As to `O=C1CCC(C(=O)O)C2=C1CCCC2` (stereo not given), the result was inactive.

As to `CC(=O)Oc1cccc2c1ccc1nonc12`, the EC50 was over 174 µM and the 50% inhibitory concentration (IC50) was found to be 28.2 µM.

As for `C[PH+](C)C.C[PH+](C)C.[C-]#[O+].[C-]#[O+].[C-]#[O+].[Fe]`, the EC50 is over 200 µM and the 50% inhibitory concentration (IC50) came to 49 µM.

Take `O=C1CCC2(c3ccc(Cl)cc3)Nc3ccncc3N12` (stereo not given): the EC50 was over 631 µM and the IC50 was 91.2 µM.

Turning to `CCC(=O)C12OC3OC(C)(C)OC3C1OC(C)(C)O2` (stereo not given), the result was inactive.

As to `Cc1cc(Br)c(O)c(-c2cscn2)c1`, the EC50 was over 200 µM and the half-maximal inhibitory concentration (IC50) was found to be 11.2 µM.

As to `CC1(C)C(=O)CCC(=O)C(C)(C)C2=CC=C(O2)C(C)(C)C(=O)CCC(=O)C(C)(C)C2=CC=C1O2`, the result was inactive.

As for `O=C1c2cc(Br)ccc2OC2CCON12` (stereo not given), the outcome was inactive.

As to `CN1C(=O)N/C(=C\c2ccc(S(=O)(=O)NN)cc2)C1=O`, the EC50 is over 200 µM and the concentration for half-maximal inhibition (IC50) is over 100 µM.

Take `CS(=O)(=O)c1nc(N)nc2nc[nH]c12`: the EC50 is over 200 µM and the half-maximal inhibitory concentration (IC50) was over 200 µM.

As to `NNC(=O)c1nnc(NN)[nH]c1=O`, the EC50 is over 200 µM and the half-inhibitory concentration (IC50) was over 200 µM.

Take `CC(CN)OC12CC3CC(CC(C3)C1)C2` (stereo not given): the EC50 is over 200 µM and the half-inhibitory concentration (IC50) worked out at 105 µM.

Turning to `COc1ccc(NC(=O)CC(=O)N2N=C(C)C(N=Nc3ccc(C(=O)O)cc3)C2=O)cc1` (stereo not given), the EC50 was over 200 µM and the half-maximal inhibitory concentration (IC50) amounted to 95.5 µM.

`CC[N+](C)(C)Cc1ccccc1Br`: the EC50 was over 200 µM and the IC50 worked out at 182 µM.

On to `COc1ccc(NC(=O)CC(=O)N/N=C(/C)c2cc3cc(N=Nc4ccccc4Cl)ccc3oc2=O)cc1`, for which the EC50 is over 9.77 µM and the IC50 is over 9.77 µM.

In the case of `Cc1cc(NCCCCCCNc2cc(C)nc3cc(N(C)C)ccc23)c2ccc(N(C)C)cc2n1`, the outcome was inactive.

Regarding `N#Cc1c(C#N)c(-c2ccco2)n(/N=C/c2ccco2)c1N`, the EC50 is over 200 µM and the half-maximal inhibitory concentration (IC50) is over 200 µM.

Consider `N.N.N.N.N.NC(=O)c1nn[n-]n1.[Cl-].[Co+3]`, for which the EC50 is over 759 µM and the IC50 was over 759 µM.

Turning to `O=C(O)C[C@@H]1[C@@H](O)[C@@H](O)CN2C(=O)c3ccccc3[C@H]12`, the EC50 was over 200 µM and the concentration for half-maximal inhibition (IC50) was over 200 µM.

In the case of `O=C1[C@@H]2[C@H](C(=O)N1c1ccccc1)[C@H]1CC[C@H]2N1C(=O)c1ccccc1`, the EC50 is over 55 µM and the IC50 was over 55 µM.

On to `Cc1cn2c(=O)c3ncn(C4OC(CO)C(O)C4O)c3n(C)c2n1` (stereo not given), for which the outcome was inactive.

On to `COc1ccc(OCC(=O)O)c2c1CCCC2=O`, for which the result was inactive.

As for `C=C(C)[C@@H]1CC[C@]2(C)CC[C@]3(C)[C@H](CC[C@@H]4[C@@]5(C)CC[C@H](O)C(C)(C)[C@@H]5CC[C@]43C)[C@@H]12`, the EC50 is over 100 µM and the concentration for half-maximal inhibition (IC50) came out at 51.3 µM.

Turning to `Nc1ccc(N=Nc2ccc(N=Nc3ccc(N=Nc4cc(S(=O)(=O)O)c5ccccc5c4O)c4ccc(S(=O)(=O)O)cc34)c3ccc(S(=O)(=O)O)cc23)cc1`, the result was active.

As for `O=C1CC2c3[nH]c4ccccc4c3CCN2C2=C1CCCC2` (stereo not given), the EC50 was over 200 µM and the concentration for half-maximal inhibition (IC50) was 10.2 µM.

In the case of `O=C1CCN2CCCC1C2` (stereo not given), the EC50 is over 1410 µM and the half-inhibitory concentration (IC50) stood at 1290 µM.

For the molecule `CCC1=C(c2ccc(OC)cc2)CCC2(CCNC2)C1C` (stereo not given), the EC50 was over 513 µM and the IC50 is 10.5 µM.

`CCOC(=O)C(NC(=O)c1cccc(Cl)c1)(Nc1ccc(S(=O)(=O)Nc2cc(C)on2)cc1)C(F)(F)F` (stereo not given): the EC50 was over 200 µM and the half-inhibitory concentration (IC50) amounted to 155 µM.

On to `O=C1NC2C(=CC(O)C(O)C2O)c2cc3c(cc21)OCO3` (stereo not given), for which the EC50 was over 8.51 µM and the concentration for half-maximal inhibition (IC50) turned out to be 0.174 µM.

`CC(=O)Nc1c(C#N)c2n(c1C(=O)O)CCC2`: the EC50 was over 200 µM and the half-inhibitory concentration (IC50) was over 200 µM.

Take `Cc1cccc(C)c1NC(=O)C(=O)CC(=O)CO`: the EC50 was over 724 µM and the 50% inhibitory concentration (IC50) is over 724 µM.

As for `COc1ccc(C(c2c(O)c3ccccc3n(C)c2=O)c2c(O)c3ccccc3n(C)c2=O)cc1`, the EC50 was over 8.13 µM and the IC50 was over 8.13 µM.

In the case of `NC(=O)NC(=O)C(Cc1ccc(Cl)cc1)c1ccccc1` (stereo not given), the EC50 is over 85.1 µM and the concentration for half-maximal inhibition (IC50) is over 85.1 µM.

On to `COc1c(OC(C)C)cc2cc(O)c(C(=O)NC3Cc4ccc(c(Cl)n4)O[C@@H]4C=C5C#C/C(=C\C#CC6OC56C4OC4CC(C)(O)C(O)C(C)O4)C(OC4CC(O)C(N(C)C)C(C)O4)COC3=O)cc2c1OC` (stereo not given in full), for which the outcome was inactive.

Consider `COC(=O)C(=O)c1c2ccccc2n2ccc3c4ccccc4[nH]c3c12`, for which the EC50 was over 200 µM and the concentration for half-maximal inhibition (IC50) is 83.2 µM.

As to `CC(=O)OCCOCn1c2ccccc2c2c3c(c4c5ccccc5n(COCCO)c4c21)C(=O)N(Cc1ccccc1)C3=O`, the result was inactive.

Consider `COc1cc(OC)c(/C=N\Nc2nc3ccccc3c(=O)n2-c2ccccc2)c(OC)c1`, for which the EC50 is over 50.1 µM and the half-maximal inhibitory concentration (IC50) is 37.2 µM.

Regarding `CCOP(=O)(OCC)C(Cc1ccccc1)N=C(c1ccccc1)c1ccccc1` (stereo not given), the EC50 is over 200 µM and the concentration for half-maximal inhibition (IC50) is 10.7 µM.

In the case of `O=C(NNc1nc2cc(F)ccc2n2cccc12)c1cnccn1`, the EC50 was over 200 µM and the half-maximal inhibitory concentration (IC50) was determined as 3.47 µM.

As to `O=[N+]([O-])c1ccccc1S(=O)(=O)Oc1ccccc1`, the EC50 is over 77.6 µM and the IC50 worked out at 47.9 µM.

Consider `C/C(CC(=O)Nc1cccc(Cl)c1C)=N\NC(=O)c1ccncc1`, for which the EC50 is over 275 µM and the IC50 came out at 129 µM.

For the molecule `COc1ccc(/C=C2\C(=O)Nc3ccccc32)cc1OC`, the EC50 is over 1.95 µM and the IC50 is over 1.95 µM.

As to `COc1cccc2c1C(c1cccc3ccccc13)OC2=O` (stereo not given), the EC50 is over 45.7 µM and the IC50 turned out to be 7.94 µM.

`C/C(CN1C(=O)c2ccccc2C1=O)=N\NS(=O)(=O)c1ccc(F)cc1`: the EC50 was over 479 µM and the IC50 is over 479 µM.

Take `CCOC(=O)N[C@@H]1C(CC(=O)OC)O[C@H]2OC(C)(C)O[C@H]21` (stereo not given in full): the EC50 is over 832 µM and the concentration for half-maximal inhibition (IC50) was over 832 µM.

For the molecule `O=C1OC2(O)c3ccccc3C(=O)N2N2CCCCC12` (stereo not given), the EC50 is over 646 µM and the IC50 was over 646 µM.

Consider `CCCCCCCCCCCCCCOP(=O)(O)OCCC=C(c1cc(Cl)c(O)c(C(=O)O)c1)c1cc(Cl)c(O)c(C(=O)O)c1`, for which the EC50 was over 200 µM and the half-inhibitory concentration (IC50) is over 100 µM.

On to `Cc1ncc([N+](=O)[O-])n1CCn1ccnc1[N+](=O)[O-]`, for which the EC50 was over 200 µM and the IC50 was over 200 µM.

Consider `O=[N+]([O-])c1ccc2c(c1)C1=C(CO2)Cc2ccccc2O1`, for which the outcome was inactive.

For the molecule `NC1(C(=O)O)CSSC1`, the concentration for half-maximal inhibition (IC50) was 10.7 µM and 8.71 µM.

Turning to `C/C(=N\NS(=O)(=O)c1ccccc1)c1ccc[n+]([O-])n1`, the outcome was inactive.

On to `C#CCN(N=O)C(=O)NCCCCC(NC(C)=O)C(=O)NCc1ccccc1` (stereo not given), for which the EC50 was over 646 µM and the IC50 is 56.2 µM.

As for `CC(C)c1cc(C(C)C)c(B(c2ccccc2)c2ccccc2)c(C(C)C)c1Br`, the EC50 is over 200 µM and the half-maximal inhibitory concentration (IC50) was over 200 µM.

Consider `CN(C)CCOC1(CC2CCCCC2)CCC(C(C)(C)C)CC1` (stereo not given), for which the EC50 was over 200 µM and the IC50 turned out to be 8.13 µM.

For `N#CC(NC12CC3CC(CC(C3)C1)C2)c1ccc2c(c1)OCO2` (stereo not given), the result was inactive.

As for `C[Si]12OCCCN(CCO1)CCO2`, the outcome was inactive.

Turning to `CC(C)CC(NC(=O)C(Cc1cnc[nH]1)NC(=O)C(CC(N)=O)NC(=O)C(NC(=O)C(CO)NC(=O)C(Cc1ccc(O)cc1)NC(=O)C(CO)NC(=O)C(C)NC(=O)C(N)CCCCN)C(C)O)C(=O)O` (stereo not given) (H-KASYSTNHL-OH; configuration not given here), the EC50 was over 61.7 µM and the IC50 is over 61.7 µM.

With `Oc1ccc(O)c(CNc2ccc(C(O)C(F)(F)F)cc2)c1` (stereo not given), the EC50 was over 200 µM and the IC50 stood at 18.6 µM.
